Test results as given in a melting point compilation (Tetko et al.; mined from patent text by program, amines drawn as free bases though some values may be those of a salt).

For `CC1CC2=CC(=O)CCC2C2C(O)CC3(C)C(O)CCC3C12` (centres undefined), which melting point is on record?
Its melting point is 163 °C.

Which melting point does the source give for `Cc1c(C(=O)C(C)Br)ccn1S(=O)(=O)c1ccccc1` (centres undefined) here?
The melting point was 99 to 103 °C.

With `N#Cc1cc(-c2ccccc2F)[nH]c1Cl` as the molecule, how does the melting point read?
The melting point was 218 to 220 °C.

Which melting point does the source give for `CC(C)OC(=O)c1cn(Cc2c(F)cccc2F)c2nc(-c3ccc(N)cc3)c(CN(C)Cc3ccccc3)n2c1=O` here?
The melting point was 168 to 170 °C.

For `Cc1ccc2c(c1)[C@@H]1CN(C)CC[C@@H]1CC2=O` (relative stereo), which melting point is on record?
Its melting point is greater than 250 °C.

Which melting point does the source give for `CC12C=CC(O)CC1=CCC1C2CCC2(C)C(=O)CCC12` (centres undefined) here?
Its melting point is 138 to 140 °C.

Which melting point does the source give for `CSc1cc(C)c(O)cc1C` here?
The melting point was 98 to 99 °C.

Which melting point does the source give for `O=[N+]([O-])c1cc2nc(O)c(O)nc2cc1Br` here?
The melting point was greater than 300 °C.

For `CCNC(=O)c1ccccc1NS(=O)(=O)C(F)(F)F`, which melting point is on record?
The melting point was 85.5 to 87 °C.

Which melting point does the source give for `COc1ccc(C(O)c2ccc(OC)c(OCc3ccccc3)c2)cc1OCc1ccccc1` here?
The melting point was 103 to 105 °C.

With `CC1(O)CC(=O)OC(CCc2ccc(OCc3ccc(F)cc3)cc2)C1Br` (centres undefined) as the molecule, how does the melting point read?
Its melting point is 160 to 163 °C.

For `COCc1c(C(=O)OC(C)C)ncc2c1c1c(OCc3ccccc3)cccc1n2CC(=O)N(C)CCc1ccccc1`, which melting point is on record?
The melting point was 146 to 147 °C.

With `O=c1ccc2ccc(OCCCCCc3ccccc3)cc2o1` as the molecule, how does the melting point read?
Its melting point is 103 °C.

With `COC(=O)c1ccc(C(=O)NS(=O)(=O)c2ccc(CCNC(=O)CC(C)C)cc2)cn1` as the molecule, how does the melting point read?
The melting point was 176 to 178 °C.

For `CCOCCOC(=O)c1nc2ccc(COc3cccc(OCc4ccc5ccccc5n4)c3)cc2o1`, which melting point is on record?
Its melting point is 84 to 85 °C.

Which melting point does the source give for `CN(C)C1=Nc2ccccc2C(O)(c2ccccc2)C1(C)C` (centres undefined) here?
Its melting point is 170 to 173 °C.

With `O=C1CCc2ccc(Oc3ccc(CN4CCN(c5cccc(Cl)c5Cl)CC4)cc3)cc2N1` as the molecule, how does the melting point read?
The melting point was 185 to 186 °C.

For `CC(C)(C)OC(=O)n1[nH]c2c(cnc3c([N+](=O)[O-])cccc32)c1=O`, which melting point is on record?
Its melting point is greater than 250 °C.

Which melting point does the source give for `COc1cc2c(cc1OC)-c1n[nH]c(Nc3cc(Cl)cc(Cl)c3)c1C2` here?
Its melting point is greater than 270 °C.

With `COC(=O)c1cc(N(C)C)c(C(C)(C)C)c(N(C)C)c1` as the molecule, how does the melting point read?
The melting point was 80 to 82 °C.

For `CCOC(=O)CC(=O)c1cc(F)c(N2CCNCC2)nc1Nc1ccc(F)cc1F`, which melting point is on record?
Its melting point is 121 to 123 °C.

Which melting point does the source give for `CCNc1cncc(C(=NCCc2ccccc2Cl)NC#N)c1` here?
The melting point was 168 °C.

For `NC(=O)c1ccc(CN2C(=O)C3(COc4cc5c(cc43)OCCO5)c3ccccc32)cc1` (centres undefined), which melting point is on record?
The melting point was 236 to 238 °C.

With `CC1=CC(c2ccccc2Cl)C(C(=O)OC(C)C)=C(N)N1` (centres undefined) as the molecule, how does the melting point read?
Its melting point is 161 °C.

With `CCCCC(=N)NC(=O)Nc1cccc(Cl)c1` as the molecule, how does the melting point read?
The melting point was 135 to 137 °C.

For `N#Cc1ccc2c(c1)C(=O)N1CCC[C@@H]1CO2`, which melting point is on record?
The melting point was 164 to 165 °C.

Which melting point does the source give for `CC(=O)OCC1OC(OC(C)=O)C(N=[N+]=[N-])C(OC(C)=O)C1OC1OC(COC(C)=O)C(OC(C)=O)C(OC(C)=O)C1OC(C)=O` (centres undefined) here?
Its melting point is 77 to 78 °C.

For `FC1(F)CCN(c2cccc3c2OCCNC3)C1`, which melting point is on record?
The melting point was 54 °C.

Which melting point does the source give for `O=C(NCC12CC3CC(CC(C3)C1)C2)c1cc(N2CC2)ccc1Cl` here?
The melting point was 154 to 155 °C.

With `N#CC(c1ccccc1)c1ccc([N+](=O)[O-])cc1C(F)(F)F` (centres undefined) as the molecule, how does the melting point read?
Its melting point is 70.4 °C.

For `C#CCOc1cc(Cl)nc(Nc2ccccc2)n1`, which melting point is on record?
Its melting point is 92 to 93 °C.

With `CCC(C)(NC(=O)c1cc(Cl)c(N)c(C=NOC)c1)C(=O)CCl` (centres undefined) as the molecule, how does the melting point read?
Its melting point is 140 to 141 °C.

With `CC(Oc1ccc(Br)cc1)c1ccnc2ncnn12` (centres undefined) as the molecule, how does the melting point read?
The melting point was 121 to 124 °C.

For `O=C(OCc1ccccc1)N1CCC(Nc2nc3cccnc3n2Cc2ccc(F)cc2)CC1`, which melting point is on record?
The melting point was 130 °C.

Which melting point does the source give for `CCC(CC)(C(=O)OC1CC(C)(C)N(OCc2ccccc2)C(C)(C)C1)C(=O)OC1CC(C)(C)N(OCc2ccccc2)C(C)(C)C1` here?
The melting point was 122 to 123 °C.

For `CCCc1nc2c(N)nc3ccccc3c2n1CCCCNC(=O)c1ccccc1`, which melting point is on record?
The melting point was 173 to 174 °C.

For `CCCN(C(=S)NC(=O)c1ccccc1)C(CO)c1ccccc1` (centres undefined), which melting point is on record?
The melting point was 82 °C.

For `CCOC(=O)c1cc(O)n(C)n1`, which melting point is on record?
Its melting point is 151 to 153 °C.

Which melting point does the source give for `CC1CCCCC1C(=O)Nc1ccc(-c2ncc(-c3ccc(NC(=O)c4cccnc4)cc3)[nH]2)cc1` (centres undefined) here?
The melting point was 245 to 247 °C.

For `COC(=O)C1C(=O)Nc2ccc(C(F)(F)F)cc2CC1c1ccc(OC)cc1` (centres undefined), which melting point is on record?
The melting point was 161 to 163 °C.

With `CCCCc1oc2ccccc2c1-c1ncc(-c2ccc3cc(OCc4ccc(C(=O)OC)cc4)ccc3c2)o1` as the molecule, how does the melting point read?
Its melting point is 169 to 170 °C.

For `CC1(C)[C@H]2[C@H](O)OC(=O)[C@H]21`, which melting point is on record?
The melting point was 116 °C.

For `CCOC(=O)C1=C(C)OC(=O)C1=C(C)O`, which melting point is on record?
The melting point was 106 to 108 °C.

With `O=C1Nc2ccccc2C1CCCCN1CC=C(c2ccc(Cl)cc2)CC1` (centres undefined) as the molecule, how does the melting point read?
The melting point was 122 to 124 °C.

Which melting point does the source give for `CCOC(=O)C=C(C)C=CC=C(C)C=Cc1c(C)c(CC)c(OC)c(CC)c1C` here?
Its melting point is 153 to 154 °C.

With `CC(=O)OC1CSC(Oc2cccc3ccoc23)C(OC(C)=O)C1OC(C)=O` (centres undefined) as the molecule, how does the melting point read?
Its melting point is 152 °C.

With `COc1cc2c(Cl)c(C#N)cnc2cc1NC(C)=O` as the molecule, how does the melting point read?
Its melting point is 230 to 235 °C.

With `O=C(O)CN1CCN(c2ccnc(-c3nc(=O)c4ccccc4s3)c2)C1=O` as the molecule, how does the melting point read?
Its melting point is 271 to 273 °C.

With `CC(C)c1cccc(C(C)C)c1NC(=O)CNC(c1ccccn1)c1ccccn1` as the molecule, how does the melting point read?
Its melting point is 134 to 135 °C.

With `CN(Cc1cc2c3c(c1)c(=O)c(C(=O)NCc1ccc(Cl)cc1)cn3CC(=O)N2C)C[C@@H](O)c1nccs1` as the molecule, how does the melting point read?
The melting point was 125 to 130 °C.

With `CC(=O)OCC(N=O)C(C)(C)Cl` (centres undefined) as the molecule, how does the melting point read?
The melting point was 117 to 119 °C.

With `CC(C)(C)OC(=O)NC(Cc1ccccc1)C(=O)OC(Cc1c[nH]cn1)C(=O)O` (centres undefined) as the molecule, how does the melting point read?
The melting point was 130 to 131 °C.

With `CC(C)(C)OC(=O)N1CCN(C2CCN(c3ccc(N)cc3C#N)CC2)CC1` as the molecule, how does the melting point read?
The melting point was 172 °C.

For `CC(C)(C)OC(=O)Nc1ccc(-c2ccc(F)cc2)cc1NC(=O)CC(=O)c1sccc1Cl`, which melting point is on record?
Its melting point is 168 to 169 °C.

Which melting point does the source give for `Cc1cc(CCCCCCCCCCc2cc(C)c(O)c(C(C)(C)C)c2)cc(C(C)(C)C)c1O` here?
Its melting point is 96 to 98 °C.

With `CCC(=O)Oc1ccc(NCc2c(F)c(F)c(C(F)(F)F)c(F)c2F)cc1C(=O)O` as the molecule, how does the melting point read?
The melting point was 188 to 191 °C.

With `COC(=O)[C@@H]1CCCC[C@H]1C[C@@H](O)[C@H](Cc1ccccc1)NC(=O)OC(C)(C)C` as the molecule, how does the melting point read?
The melting point was 127 to 128 °C.

With `Cc1ccc(C(=S)C2CCC3C4CCc5cc(C(=O)O)ccc5C4CCC23C)cc1` (centres undefined) as the molecule, how does the melting point read?
Its melting point is 255 to 257 °C.

For `CCOC(=O)c1ccc(O)c(CC)c1`, which melting point is on record?
The melting point was 73 to 74 °C.

For `O=c1ccc(-c2ccc(C(F)(F)F)cc2)n[nH]1`, which melting point is on record?
Its melting point is 191 to 193 °C.

With `O=C(CBr)C(O)(CBr)c1ccc(F)cc1` (centres undefined) as the molecule, how does the melting point read?
The melting point was 90 °C.

Which melting point does the source give for `CC1=C(/C=C/C(C)=C/C=C/C(C)=C/C(=O)O)C(C)(C)CCC1=O` here?
Its melting point is 184 to 187 °C.

Which melting point does the source give for `COc1ccc(S(=O)(=O)N2c3ccc(Br)cc3-c3ccccc3C2c2ccccc2)cc1` (centres undefined) here?
The melting point was 209 to 211 °C.

Which melting point does the source give for `O=C(CN1c2nc(-c3ccncc3)cc(=O)n2CCC12CC2)c1ccccc1` here?
The melting point was 232 to 234 °C.

With `CCOC(=O)c1ncn2c1[C@@H]1CCN1C(=O)c1c-2ccc(F)c1F` as the molecule, how does the melting point read?
Its melting point is 234 to 236 °C.

With `COc1cc2cc(C(=O)N3CC(CCl)c4c3cc(NC(=O)C(C)(C)c3ccccc3[N+](=O)[O-])c3ccccc43)[nH]c2c(OC)c1OC` (centres undefined) as the molecule, how does the melting point read?
Its melting point is 139 to 143 °C.

Which melting point does the source give for `COc1cccc2c1C(NC(C)=O)=NS2(=O)=O` here?
Its melting point is 242 to 245 °C.

With `Cc1cccc(N2CCN([C@@H](Cc3ccc(OCCc4nc(-c5ccccc5)oc4C)cc3)C(=O)O)CC2)c1` as the molecule, how does the melting point read?
Its melting point is 205 to 207 °C.

With `CN1CCCc2c(NC(=NC#N)NC(NC(=O)Cc3ccc(Cl)cc3)C(C)(C)C)cccc21` (centres undefined) as the molecule, how does the melting point read?
The melting point was 114 to 117 °C.
